In patent publication US9464075B2 (priority 2008, dated 2016):

What was measured:
A/M2-V27A [1] = biological target: T1, A/M2-V27A (Influenza A virus, UniProt P0DOF5, V27A); assay type: cell-based, Influenza virus A/Udorn/72
A/M2-A30T = A/M2-A30T (Influenza A virus, UniProt P0DOF5, A30T); assay type: cell-based, Influenza virus A/Udorn/72
A/M2-V27G = A/M2-V27G (Influenza A virus, UniProt P0DOF5, V27G); assay type: cell-based, Influenza virus A/Udorn/72
[2] = test system: influenza virus, containing the A/M2-V27A mutation; assay type: cell-based
A/M2-L26F = A/M2-L26F (Influenza A virus, UniProt P0DOF5, L26F); assay type: cell-based, Influenza virus A/Udorn/72
A/M2-S31N = A/M2-S31N (Influenza A virus, UniProt P0DOF5, S31N); assay type: cell-based, Influenza virus A/Udorn/72
A/M2-G34E = A/M2-G34E (Influenza A virus, UniProt P0DOF5, G34E); assay type: cell-based, Influenza virus A/Udorn/72
A/M2-V27A [3] = biological target: T1, A/M2-V27A; assay type: cell-based

SMILES	% remaining activity after application of 100 μM compound (A/M2-V27A [1]) [%]	% remaining activity after application of 100 μM compound (A/M2-A30T) [%]	% remaining activity after application of 100 μM compound (A/M2-V27G) [%]	inhibition of plaque formation (in words) [2]	% remaining activity after application of 100 μM compound (A/M2-L26F) [%]	% remaining activity after application of 100 μM compound (A/M2-S31N) [%]	% remaining activity after application of 100 μM compound (A/M2-G34E) [%]	concentration at which plaque formation was reduced [2] [µM]	inhibition of the mutant (in words) (A/M2-S31N)	AM2 V27A % inhibition at 100 μM (A/M2-V27A [3])
NC12CC3CC(CC(C3)C1)C2 [Amantadine, reference compound]	93.07 ± 1.9	104.6 ± 4.3	95 ± 4.9	failed to inhibit plaque formation	51.8 ± 3.5	65.3 ± 2.7	100.4 ± 6.7			
C1CCC2(CC1)CCN(C1=NCCN1)CC2 [BL-1743, 3-(4,5-Dihydro-1H-imidazol-2-yl)-3-aza-spiro[5.5]undecane, reference compound]	97.4 ± 1.8	102 ± 2.3	82.9 ± 9.3	failed to inhibit plaque formation	89.2 ± 4.8	100 ± 0.67	89.8 ± 6.9			
Cl.NC1CCC2(CCCCC2)CC1 [Compound 8]	46.6 ± 6.6	98.1 ± 7.0	87.9 ± 6.1		32.4 ± 3.3	99.1 ± 0.9	96. ± 5.9	5	little inhibition	
CNC1CCC2(CCCCC2)CC1.Cl [Compound 9]	70.2 ± 1.55	101. ± 3.2	89.6 ± 4.1		72.6 ± 8.4	100 ± 4.1	101.7 ± 2.8			
Cl.NNC1CCC2(CCCCC2)CC1 [Compound 31, N′-Spiro[5.5]undec-3-yl-hydrazinium chloride]										31 (7.1%)
Cl.NC1CSC2(CCCCC2)SC1 [Compound 33, 1,5-Dithia-spiro[5.5]undec-3-yl-ammonium chloride]										33 (0%) 34 (46.9%)
NC1CSC2(CCCCCC2)SC1 [Compound 34, 1,5-Dithia-spiro[5.6]dodec-3-yl-ammonium chloride]										33 (0%) 34 (46.9%)
N=C(N)NC1CCC2(CCCCC2)CC1 [Compound 35]										35 (14.6%)
